Data as given in patent publication US20260124226A1 (priority 2023, published 2026).
Values joined by “and” are separate entries in the source; they are usually repeats but may differ in a detail not shown here. Equal values may be shown once. Read-outs that look alike come from different tables or passages of the source.

Key:
Punta Toro virus = assay: microbe, parasite or virus in culture; assay type: cell-based
Flu A H3N2 = assay: microbe, parasite or virus in culture; assay type: cell-based, influenza A virus
La Crosse virus = assay: microbe, parasite or virus in culture; assay type: cell-based
Pichinde virus = assay: microbe, parasite or virus in culture; assay type: cell-based; conditions: Vero
in vitro [1] = conditions: dog
Vero cells = conditions: African green monkey
Usutu virus = assay: microbe, parasite or virus in culture; assay type: cell-based; conditions: Vero 76
in vitro [2] = conditions: human
Enterovirus-68 = assay: microbe, parasite or virus in culture; assay type: cell-based, EV-D68; conditions: Enterovirus-68, RD cells
Plasma stability [3] = assay: Plasma stability
Plasma stability [4] = assay: Plasma stability; remark: listed apart in the source
RVFV = assay: microbe, parasite or virus in culture; assay type: cell-based, Rift Valley fever virus
HRV-14 = assay: microbe, parasite or virus in culture; assay type: cell-based, human rhinovirus; conditions: Rhinovirus B, HRV14
DENV2 = assay: microbe, parasite or virus in culture; assay type: cell-based, Dengue virus 2; conditions: Dengue virus, DENV2, Vero 76
CHIKV = assay: microbe, parasite or virus in culture; assay type: cell-based, Chikungunya virus; conditions: for EC50: Vero76 cells
POWV = assay: microbe, parasite or virus in culture; assay type: cell-based, Powassan virus
[5] = Liver microsome stability; conditions: CD-1, mouse, microsomes
Marpol virus = assay: organism not typed; assay type: cell-based
Influenza A H1N1 = assay: microbe, parasite or virus in culture; assay type: cell-based, influenza A virus
[6] = system: Lymphocytic choriomeningitis virus; assay: microbe, parasite or virus in culture; assay type: cell-based; conditions: Mammarenavirus choriomeningitidis, Vero
VEEV = assay: microbe, parasite or virus in culture; assay type: cell-based, Venezuelan equine encephalitis virus
Flu A H5N1 (High Path) = assay type: cell-based, influenza A virus
EEEV = assay: microbe, parasite or virus in culture; assay type: cell-based, Eastern equine encephalitis virus; conditions: Eastern equine encephalitis virus, Vero 76
[7] = system: Severe fever thrombocytopenia syndrome virus; assay: organism not typed; assay type: cell-based; conditions: Vero
Junin virus = assay: microbe, parasite or virus in culture; assay type: cell-based
Parainfluenza virus 3 = assay: organism not typed; assay type: cell-based
MERS = assay: microbe, parasite or virus in culture; assay type: cell-based, MERS coronavirus; conditions: Middle East respiratory syndrome-related coronavirus
Tacaribe virus = assay: microbe, parasite or virus in culture; assay type: cell-based
in vitro [8] = conditions: human; remark: listed apart in the source
Heartland virus = assay: microbe, parasite or virus in culture; assay type: cell-based; conditions: Vero
in vitro [9] = conditions: African green monkey
WEEV = assay: microbe, parasite or virus in culture; assay type: cell-based, Western equine encephalitis virus
ZIKV = assay: microbe, parasite or virus in culture; assay type: cell-based, Zika virus; conditions: for EC50: Vero 76 cells
in vitro [10] = conditions: African green monkey; remark: listed apart in the source
Flu A H5N1 (Low Path) = assay: microbe, parasite or virus in culture; assay type: cell-based, influenza A virus
[11] = Liver microsome stability; conditions: both, human, microsomes, pH 7.4
Plasma stability [12] = assay: Plasma stability; remark: listed apart in the source
in vitro [13] = conditions: Syrian golden hamster
EBOV = assay: microbe, parasite or virus in culture; assay type: cell-based, Ebola virus; conditions: Zaire ebolavirus, Vero
Poliovirus = assay: microbe, parasite or virus in culture; assay type: cell-based
[14] = Liver microsome stability; conditions: male, Sprague-Dawley, rat, microsomes, pH 7.4
Flu B = assay: microbe, parasite or virus in culture; assay type: cell-based, influenza B virus
Flu A H7N9 (High Path) = assay: microbe, parasite or virus in culture; assay type: cell-based, influenza A virus
[15] = both, human
[16] = both, human, pH 7.4
[17] = male, CD-1, mouse
[18] = CD-1, mouse
[19] = male, Sprague-Dawley, rat
[20] = male, Sprague-Dawley, rat, pH 7.4
[21] = Western equine encephalitis virus, Vero 76

With O=c1ccn([C@@H]2O[C@](F)(COP3(=O)OCc4ccccc4O3)[C@@H](O)[C@H]2O)c(=O)[nH]1 (stereo partly shown) [EIDD-2838] the EC50 (Punta Toro virus) was 5.75 µM, the EC50 (Punta Toro virus; Punta Toro virus, Vero 76) was 6.21 µM and the EC50 (Flu A H3N2) was 0.87 µM. It also gave an EC50 (Flu A H3N2; Influenza A virus, H3N2, MDCK) of 0.97 µM, an EC50 (La Crosse virus) of 0.69 µM and an EC90 (La Crosse virus; La Crosse virus, Vero 76) of 0.12 µM. The EC90 (Pichinde virus) was 0.55 µM, the CC50 (in vitro [1]) was over 230 µM and the CC50 (Vero cells) was 213 µM. For the same compound, the EC50 (Usutu virus) was 6.9 µM, the EC90 (Usutu virus) was 25.8 µM and the CC50 (in vitro [2]) was over 230 µM. It also gave an EC50 (Enterovirus-68; Enterovirus D, RD) of 7.36 µM, an EC50 (Enterovirus-68) of 7.82 µM and a half-life at 1 μM (Plasma stability [3]; male, Sprague-Dawley, rat, plasma) of under 1 min. For the same compound, the half-life at 1 μM (Plasma stability [4]; both, human, plasma) was 12 min, the EC50 (RVFV) was 3.68 µM and 4.14 µM and the EC50 (HRV-14) was over 230 µM. The EC50 (DENV2) was over 230 µM, the EC90 (DENV2) was 29.9 µM and the EC50 (CHIKV; CHIKV) was 3.68 µM and 3.91 µM. For the same compound, the EC90 (CHIKV; Chikungunya virus, Vero 76) was 23.9 µM, the EC50 (CHIKV; Chikungunya virus, Vero 76, CHIKV) was 2.3 µM and the EC50 (POWV) was 98.9 µM. It also gave an EC50 (POWV; Powassan virus, BHK) of 75.9 µM, a half-life at 1 μM [5] of 7 min and an EC50 (Marpol virus) of 19.1 µM. The EC50 (Marpol virus; Vero) was 25.3 µM, the EC50 (Influenza A H1N1) was 1.2 µM and 1.59 µM and 1.98 µM and the EC50 (Influenza A H1N1; Influenza A virus, H1N1, MDCK) was 2.3 µM. It also gave an EC90 [6] of 4.6 µM, an EC50 (VEEV) of 8.51 µM and an EC50 (VEEV; Venezuelan equine encephalitis virus, Vero 76) of 8.28 µM. For the same compound, the EC50 (Flu A H5N1 (High Path)) was 11.3 µM, the EC90 (EEEV) was 28.4 µM and the EC90 [7] was 7.82 µM. The EC50 (Junin virus) was 0.37 µM, the EC90 (Junin virus; Mammarenavirus juninense, Vero) was 0.023 µM and the EC50 (Parainfluenza virus 3) was 78.2 µM. For the same compound, the EC50 (Parainfluenza virus 3; MA104) was 73.6 µM, the EC50 (MERS; Vero 76) was 1.98 µM and the EC50 (MERS; Vero C1008) was 2.53 µM. It also gave an EC50 (Tacaribe virus) of 0.046 µM, an EC90 (Tacaribe virus; Mammarenavirus tacaribeense, Vero) of 0.046 µM and a CC50 (in vitro [8]) of over 230 µM. The EC90 (Heartland virus) was 8.05 µM, the CC50 (in vitro [9]) was over 230 µM and the EC50 (WEEV) was 5.75 µM and 5.98 µM. The EC50 (WEEV; [21]) was 7.82 µM, the EC90 (WEEV; [21]) was 24.2 µM and the EC50 (ZIKV; ZIKV) was 7.82 µM and 9.2 µM. It also gave an EC90 (ZIKV; Zika virus, Vero 76) of 43.7 µM, an EC50 (ZIKV; Zika virus, Vero 76, ZIKV) of 8.28 µM and a CC50 (in vitro [10]) of over 230 µM. The EC50 (Flu A H5N1 (Low Path)) was 0.71 µM, the EC50 (Flu A H5N1 (Low Path); Influenza A virus, H5N1, MDCK) was 0.78 µM and the half-life at 1 μM [11] was 7 min. It also gave a half-life at 1 μM (Plasma stability [12]; male, CD-1, mouse, plasma) of 1 min, a CC50 (in vitro [13]) of over 230 µM and an EC50 (EBOV) of 150 µM. For the same compound, the EC50 (Poliovirus) was 8.74 µM, the EC50 (Poliovirus; Enterovirus C, Vero 76) was 7.36 µM and the half-life at 1 μM [14] was 8 min. The EC50 (Flu B) was 0.74 µM and 0.67 µM, the EC50 (Flu B; Influenza B virus, MDCK) was 0.78 µM and the EC50 (Flu A H7N9 (High Path)) was 4.37 µM. It also gave an EC50 (Flu A H7N9 (High Path); Influenza A virus, H7N9, MDCK) of 5.29 µM.
With CC(C)[C@H](N)C(=O)OC[C@@]1(F)O[C@@H](n2ccc(=O)[nH]c2=O)[C@H](O)[C@@H]1O [EIDD-2971, [(1S)-1-[[(2S,3S,4R,5R)-5-(2,4-dioxopyrimidin-1-yl)-2-fluoro-3,4-dihydroxy-tetrahydrofuran-2-yl]methoxycarbonyl]-2-methyl-propyl]ammonium chloride] the “max [2749]” value [15] was 0.0152 µM, the half-life ([16]; microsomes) was 38 min and the “max [2749]” value [16] was 0.179 µM. For the same compound, the “max [2749]” value [17] was 0.267 µM, the half-life (Plasma stability [3]; rat plasma, drug 1.00 μM) was 50 min and the half-life (Plasma stability [4]; human plasma, drug 1.00 μM, 37° C.) was 81 min. The “max [2749]” value [18] was 0.305 µM, the half-life ([18]; microsomes) was 11 min and the “max [2749]” value [19] was 0.155 µM. The half-life (Plasma stability [12]; mouse plasma, drug 1.00 μM) was 59 min, the half-life ([20]; microsomes) was 33 min and the “max [2749]” value [20] was 0.203 µM.
